Assay results from US20100055169A1, “CATIONIC LIPIDS AND USES THEREOF” (ABBOTT LABORATORIES, priority 2008, published 2010).

Test: Particle sizing assay (Zetasizer Nano ZS), in vivo formulations
Format: physicochemical
Settings: lipid:siRNA 25:1
Procedure: A round bottom flask was submerged into a 65° C. water bath. Citrate buffer (37.5 ml) of pH 4.0 was pipetted into the flask. The solution was stirred by a magnetic stirring bar at a speed of 900 rpm. Both the pH 4.0 citrate buffer and the lipid solution were pre-warmed in the 65° C. water bath for about 3 minutes. A siRNA solution (0.5 ml) was pipetted into the pH 4.0 citrate buffer. The 12.5 ml lipid mixture solution was injected through a 27 gauge needle into the citrate buffer in about 30 seconds. The needle tip was inserted into the solution during the injection. The resulting solution was stirred for 5 minutes at a speed of 900 rpm. The flask was pulled up from the water bath and a 50 ml pH 7.4 PBS buffer was added into the flask. The final solution was further mixed at a speed of 900 rpm for 5 minutes. For the diafiltration process, a dialysis filter (Millipore, 100K, Cat#PXB100C50) was used to remove ethanol in the above solution. When the volume was reduced to 20 ml during the initial diafiltration, 20 ml of pH 7.4 PBS was added to the sample solution. The diafiltration was continued until the volume was reduced to 20 ml. The diafiltration process was repeated 4 times. The volume of the sample solution was reduced to about 12 ml and pH 7.4 PBS was added to make the final volume of 15 ml. The 15 ml solution was filtered sequentially through the 0.45 and 0.22 μm sterile PVDF membrane filters (Millipore) and immediately transferred into a sterile vial.
For measurements of particle sizes and size distributions (PDI), lipid-based particles were prepared as described above. The particle solution (60 μL) was pipetted into a disposable cuvette (UVette, Eppendorf, cat#952010051) and measured in the “General Purpose” mode. Attenuator and position were optimized by the device. Measurements were performed using a Zetasizer Nano ZS (Malvern Instruments) equipped with a 4 mW He—Ne laser at a wavelength of 633 nm at 25° C. Scattered light was detected at a 173° backward scattering angle. The viscosity and refractive index of water at 25° C. was used for data analysis with the Dispersion Technology Software 5.00 (Malvern Instruments).

[1] = in vivo formulation A: Cationic lipid/Example 73/DSPC/Chol 45/10/15/30 wt %
[2] = in vivo formulation B: Cationic lipid/PEG-cholesterol/DSPC/Chol 45/10/15/30 wt %
[3] = in vivo formulation C: Cationic lipid/Pal-PEG-Cera/DSPC/Chol 45/10/15/30 wt %
[4] = in vivo formulation D: Cationic lipid/Example 66/DSPC/Chol 45/10/15/30 wt %
[5] = in vivo formulation E: Cationic lipid/Example 53/DSPC/Chol 45/10/15/30 wt %
[6] = in vivo formulation F: Cationic lipid/Example 54/DSPC/Chol 45/10/15/30 wt %
[7] = in vivo formulation G: Cationic lipid/Example 55/DSPC/Chol 45/10/15/30 wt %
[8] = in vivo formulation H: Cationic lipid/PEG-DMPE/DSPC/Chol 45/10/15/30 wt %
[9] = in vivo formulation J: Cationic lipid/PEG-DSPE/DSPC/Chol 45/10/15/30 wt %
[10] = in vivo formulation K: Cationic lipid/PEG-DMG/DSPC/Chol 45/10/15/30 wt %
[11] = in vivo formulation M: Cationic lipid/PEG-DSG/DSPC/Chol 45/10/15/30 wt %
[12] = in vivo formulation NN: Cationic lipid/Example 74/DSPC/Chol 45/10/15/30 wt %
[13] = in vivo formulation OO: Cationic lipid/Example 75/DSPC/Chol 45/10/15/30 wt %
[14] = in vivo formulation P: Cationic lipid/PEG-DSPE/DOPE/Chol 45/10/15/30 wt %
[15] = in vivo formulation PP: Cationic lipid/Example 73/Chol 45/10/45 wt %
[16] = in vivo formulation Q: Cationic lipid/PEG-DSPE/DOPC/Chol 45/10/15/30 wt %
[17] = in vivo formulation R: Cationic lipid/PEG-DSPE/SPC/Chol 45/10/15/30 wt %

Size [1]: 96 nm
Size distribution (PDI) [1]: (0.06)
Size [2]: 327 nm
Size distribution (PDI) [2]: (0.198)
Size [3]: 141 nm
Size distribution (PDI) [3]: (0.026)
Size [4]: 164 nm
Size distribution (PDI) [4]: (0.104)
Size [5]: 169 nm
Size distribution (PDI) [5]: (0.163)
Size [6]: 152 nm
Size distribution (PDI) [6]: (0.08)
Size [7]: 164 nm
Size distribution (PDI) [7]: (0.104)
Size [8]: 168 nm
Size distribution (PDI) [8]: (0.007)
Size [9]: 119.7 nm
Size distribution (PDI) [9]: (0.006)
Size [10]: 155 nm
Size distribution (PDI) [10]: (0.052)
Size [11]: 116.5 nm
Size distribution (PDI) [11]: (0.029)
Size [12]: 140 nm
Size distribution (PDI) [12]: (0.029)
Size [13]: 142 nm
Size distribution (PDI) [13]: (0.029)
Size [14]: 153.7 nm
Size distribution (PDI) [14]: (0.061)
Size [15]: 108.7 nm
Size distribution (PDI) [15]: (0.094)
Size [16]: 144.1 nm
Size distribution (PDI) [16]: (0.01)
Size [17]: 159.6 nm
Size distribution (PDI) [17]: (0.036)
SMILES: CCCCC/C=C\C/C=C\CCCCCCCCOCC(CCN1CCCC1)OCCCCCCCC/C=C\C/C=C\CCCCC (stereo not shown) [Example 24, 1-{3,4-bis[(9Z,12Z)-octadeca-9,12-dienyloxy]butyl}pyrrolidine]
